Measured values reported in ChEMBL document CHEMBL2157907, “Optimization of anti-Trypanosoma cruzi oxadiazoles leads to identification of compounds with efficacy in infected mice” (Bioorg Med Chem, 2012).
Calls of active or inactive are those of the source. The calls are words filed in the database; no cut-off is given here.

Tests used:
[1] = Cytotoxicity against BALB/c mouse splenocytes after 24 hrs by [3H]-thymidine incorporation assay; assay type: cell-based, Splenocyte; conditions: read-out: LC50
[2] = target: Cruzipain (Trypanosoma cruzi) (UniProt P25779); assay: Inhibition of Trypanosoma cruzi cruzain using Z-Phe-Arg-aminomethylcoumarin as substrate at 100 uM after 10 mins
[3] = target: Cruzipain (Trypanosoma cruzi, UniProt P25779); assay: Inhibition of Trypanosoma cruzi cruzain using Z-Phe-Arg-aminomethylcoumarin as substrate after 10 mins
[4] = system: Trypanosoma cruzi; assay: Induction of kinetoplast enlargement in trypomastigotes of Trypanosoma cruzi Y at 9.5 uM after 24 hrs by […] electron microscopic analysis; assay type: functional, organism-based
[5] = system: Trypanosoma cruzi; assay: Induction of endoplasmic reticulum degeneration in trypomastigotes of Trypanosoma cruzi Y at 9.5 uM after 24 hrs by […] electron microscopic analysis; assay type: functional, organism-based
[6] = system: Trypanosoma cruzi; assay: Induction of golgi apparatus degeneration in trypomastigotes of Trypanosoma cruzi Y at 9.5 uM after 24 hrs by […] electron microscopic analysis; assay type: functional, organism-based
[7] = system: Trypanosoma cruzi; assay: Induction of mitochondria degeneration in trypomastigotes of Trypanosoma cruzi Y at 9.5 uM after 24 hrs by […] electron microscopic analysis; assay type: functional, organism-based
[8] = system: Trypanosoma cruzi; assay: Induction of ultrastructural changes in trypomastigotes of Trypanosoma cruzi Y assessed as plasma membrane protrusions at 30 uM after 24 hrs by scanning electron microscopic analysis; assay type: functional
[9] = system: Trypanosoma cruzi; assay: Antitrypanosomal activity against trypomastigotes of Trypanosoma cruzi Y in BALB/c mouse peritoneal exudate macrophages assessed as reduction of parasite infection to cells at 10 ug/ml treated simultaneously with parasite measured after 2 hrs; assay type: functional, organism-based
[10] = system: Trypanosoma cruzi; assay: Antitrypanosomal activity against trypomastigotes of Trypanosoma cruzi Y infected in BALB/c mouse peritoneal exudate macrophages assessed as reduction of parasite level at 10 ug/ml after 4 days; assay type: functional, organism-based
[11] = system: Trypanosoma cruzi; assay: Antitrypanosomal activity against epimastigotes of Trypanosoma cruzi Y after 5 days; assay type: functional, organism-based; conditions: 120 h
[12] = system: Trypanosoma cruzi; assay: Antitrypanosomal activity against trypomastigotes of Trypanosoma cruzi Y infected in rhesus monkey LLC-MK2 cells assessed parasite viability after 24 hrs; assay type: functional, organism-based; conditions: LLC-MK2, 24 h
[13] = system: Trypanosoma cruzi; assay: Antitrypanosomal activity against trypomastigotes of Trypanosoma cruzi Y infected in BALB/c mouse assessed as reduction of parasite level in blood at 50 mg/kg, po administered after 5 days of postinfection qd for 5 days; assay type: functional, organism-based; design: dose 50 mg/kg

Sequence of Cruzipain (Trypanosoma cruzi) (P25779 123-467 limits assumed): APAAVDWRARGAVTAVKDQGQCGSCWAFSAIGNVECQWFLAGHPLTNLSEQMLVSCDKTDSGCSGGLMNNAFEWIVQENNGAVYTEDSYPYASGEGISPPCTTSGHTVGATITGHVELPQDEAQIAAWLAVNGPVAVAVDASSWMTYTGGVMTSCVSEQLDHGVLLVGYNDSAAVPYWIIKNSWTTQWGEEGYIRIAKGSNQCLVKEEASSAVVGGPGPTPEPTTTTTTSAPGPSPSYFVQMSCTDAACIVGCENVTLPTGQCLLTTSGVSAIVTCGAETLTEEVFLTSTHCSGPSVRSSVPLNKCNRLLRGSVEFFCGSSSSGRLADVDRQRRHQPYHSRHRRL
Sequence of Cruzipain (P25779 whole entry): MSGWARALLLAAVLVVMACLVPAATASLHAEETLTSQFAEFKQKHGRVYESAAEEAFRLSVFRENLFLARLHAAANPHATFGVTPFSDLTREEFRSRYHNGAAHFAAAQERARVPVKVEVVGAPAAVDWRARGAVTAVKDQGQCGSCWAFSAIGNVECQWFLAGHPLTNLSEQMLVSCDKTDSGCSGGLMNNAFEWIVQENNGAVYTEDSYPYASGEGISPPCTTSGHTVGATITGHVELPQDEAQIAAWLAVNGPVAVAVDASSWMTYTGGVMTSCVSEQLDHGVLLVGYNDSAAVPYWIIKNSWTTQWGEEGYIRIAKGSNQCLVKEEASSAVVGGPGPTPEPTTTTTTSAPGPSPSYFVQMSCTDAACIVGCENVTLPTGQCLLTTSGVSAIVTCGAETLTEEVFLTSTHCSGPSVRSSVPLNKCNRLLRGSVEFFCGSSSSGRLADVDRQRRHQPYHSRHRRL

In the case of `O=C(N/N=C/c1ccc2c(c1)OCO2)c1nc(-c2ccc([N+](=O)[O-])cc2)no1`, the CC50 at 24 h [1] is reported as greater than 100 µg/mL.

With `O=C(N/N=C/c1ccc2c(c1)OCO2)c1nc(-c2ccc(O)cc2)no1` the CC50 at 24 h [1] was greater than 100 µg/mL and the inhibition [2] was 17%.

Molecule `COc1cc(/C=N/NC(=O)c2nc(-c3ccc(Br)cc3)no2)ccc1O` has a CC50 at 24 h [1] greater than 100 µg/mL, an IC50 [3] of 0.2 µM and an inhibition [2] of 100%.

In the case of `O=C(N/N=C/c1ccc2c(c1)OCO2)c1nc(-c2ccc(F)cc2)no1`, the Activity [4] is reported as “Active”, the Activity [5] is reported as “Active” and the Activity [6] is reported as “Active”. For the same molecule, the Activity [7] was “Active”, the Activity [8] was 80% and the Activity [9] was “Active”. The CC50 at 24 h [1] was greater than 100 µg/mL, the Activity [10] was “Active” and the IC50 [11] was 12.2 µM. The IC50 [12] was 9.5 µM, the inhibition [2] was 34% and the Activity [13] was “inactive”.
